The source of these data is patent publication US8530493B2, “Indolopyridines as Eg5 kinesin modulators” (4SC AG, priority 2006, dated 2013).

SMILES strings stand for the structures.

The assay has as its system RKO p21 uninduced (proliferating) colon adenocarcinoma cells. In words: Alamar Blue cell viability assay, RKO p21 uninduced (proliferating). Format: cell-based. Particulars: Homo sapiens, Table B3, anti-proliferative/cytotoxic activity, 72 hours, read-out: −log EC50 RKO p21 uninduced (proliferating) (converted). How it is done: The anti-proliferative/cytotoxic activity of the compounds described herein can be tested on subclones of RKO human colon adenocarcinoma cells (Schmidt et al., Oncogene 19, 2423-2429; 2000) using the Alamar Blue cell viability assay (described in O'Brien et al. Eur J Biochem 267, 5421-5426, 2000). The compounds are dissolved as 10 mM solutions in DMSO and subsequently diluted in semi-logarithmic steps. DMSO dilutions are further diluted 1:100 into Dulbecco's modified Eagle's medium (DMEM) containing 10% fetal calf serum to a final concentration twice as much as the final concentration in the test. RKO subclones are seeded into 96 well flat bottom plates at a density of 4000 cells per well in a volume of 50 μl per well. 24 hours after seeding the 50 μl each of the compound dilutions in DMEM medium are added into each well of the 96 well plate. Each compound dilution is tested as triplicates. Wells containing untreated control cells are filled with 50 μl DMEM medium containing 1% DMSO. The cells are then incubated with the substances for 72 hours at 37° C. in a humidified atmosphere containing 5% carbon dioxide. To determine the viability of the cells, 10 μl of an Alamar Blue solution (Biosource) are added and the fluorescence is measured at an extinction of 544 nm and an emission of 590 nm. For the calculation of the cell viability the emission value from untreated cells is set as 100% viability and the emission rates of treated cells are set in relation to the values of untreated cells. Viabilities are expressed as % values. The Graphpad Prism program is used for the calculation of EC50 values for anti-proliferative/cytotoxic activity out of the obtained dose-response curves.
To determine the cell cycle specific mode of action, subclones of RKO colon adenocarcinoma cells (RKOp21 or RKOp27 as described by Schmidt et al. in Oncogene 19, 2423-2429; 2000) are seeded into 96 well flat bottom plates at a density of 16000 cells per well in a volume of 50 μl per well in DMEM growth medium with 10% FCS containing 10 μM Ponasterone A. 24 hours after seeding the 50 μl each of the compound dilutions in DMEM medium are added into each well of the 96-well plate. Each compound dilution is tested as triplicates. Wells containing untreated control cells are filled with 50 μl DMEM medium containing 1% DMSO. The cells are then incubated with the substances for 72 hours at 37° C. in a humidified atmosphere containing 5% carbon dioxide. To determine the viability of the cells, 10 μl of an Alamar Blue solution (Biosource) are added and the fluorescence is measured at an extinction of 544 nm and an emission of 590 nm. For the calculation of the cell viability the emission value from untreated cells is set as 100% viability and the emission rates of treated cells are set in relation to the values of untreated cells. Viabilities are expressed as % values. The Graphpad Prism program (GraphPad Software, Inc) is used for the calculation of EC50 values out of the obtained dose-response curves. Viability is compared of proliferating cells grown in the absence of the inducer Ponasterone A, versus viability of cells arrested by the expression of ectopic p27Kip1 induced by Ponasterone A.
Representative values for anti-proliferation/cytotoxicity [measured as −log EC50 (mol/l)] determined in the aforementioned assays follow from the following tables B1, B2 and B3, in which the numbers of the compounds correspond to the numbers of the examples.
As usually defined, the EC50 is the concentration giving half of the maximal effect. For the compound `COc1ccc2[nH]c3c(c2c1)C[C@@]1(C)C(=O)N(CCCNC(C)(C)C)C(=O)N1[C@@H]3c1cccc(O)c1` (racemic) [Example 167, (3aSR,10RS)-2-(3-tert-Butylamino-propyl)-10-(3-hydroxy-phenyl)-6-methoxy-3a-methyl-3a,4,9,10-tetrahydro-2,9,10a-triaza-cyclopenta[b]fluorene-1,3-dione], the EC50 was at most 39.8 nM.

As to `C=CCN(C)CCCN1C(=O)N2[C@H](c3cccc(O)c3)c3[nH]c4ccc(OC(F)F)cc4c3C[C@@]2(C)C1=O` (racemic) [Example 184, (3aSR,10RS)-2-[3-(Allyl-methyl-amino)-propyl]-6-(1,1-difluoro-methoxy)-10-(3-hydroxy-phenyl)-3a-methyl-3a,4,9,10-tetrahydro-2,9,10a-triaza-cyclopenta[b]fluorene-1,3-dione], the concentration giving a half-maximal response (EC50) was 39.8 to 251 nM.

As for `COCCNCCCN1C(=O)N2[C@H](c3cccc(O)c3)c3[nH]c4ccc(OC(F)F)cc4c3C[C@@]2(C)C1=O` (racemic) [Example 205, (3aSR,10RS)-6-(1,1-Difluoro-methoxy)-10-(3-hydroxy-phenyl)-2-[3-(2-methoxy-ethylamino)-propyl]-3a-methyl-3a,4,9,10-tetrahydro-2,9,10a-triaza-cyclopenta[b]fluorene-1,3-dione], the EC50 is 39.8 to 251 nM.

Regarding `C[C@@]12Cc3c([nH]c4ccc(Br)cc34)[C@@H](c3cccc(O)c3)N1C(=O)N(CCCNC1CC1)C2=O` (racemic) [Example 215, (3aSR,10RS)-6-Bromo-2-(3-cyclopropylamino-propyl)-10-(3-hydroxy-phenyl)-3a-methyl-3a,4,9,10-tetrahydro-2,9,10a-triaza-cyclopenta[b]fluorene-1,3-dione], the EC50 was at most 39.8 nM.

Take `CNCCCN1C(=O)N2[C@H](c3cccc(O)c3)c3[nH]c4ccc(OC(F)F)cc4c3C[C@@]2(C)C1=O` (racemic) [Example 203, (3aSR,10RS)-6-(1,1-Difluoro-methoxy)-10-(3-hydroxy-phenyl)-3a-methyl-2-(3-methylamino-propyl)-3a,4,9,10-tetrahydro-2,9,10a-triaza-cyclopenta[b]fluorene-1,3-dione]: the EC50 is 39.8 to 251 nM.

For `COc1cc2c3c([nH]c2cc1F)[C@@H](c1cccc(O)c1)N1C(=O)N(CCCN(C)C(C)C)C(=O)[C@]1(C)C3` (racemic) [Example 319, (3aSR,10RS)-7-Fluoro-10-(3-hydroxy-phenyl)-2-[3-(isopropyl-methyl-amino)-propyl]-6-methoxy-3a-methyl-3a,4,9,10-tetrahydro-2,9,10a-triaza-cyclopenta[b]fluorene-1,3-dione], the EC50 is 39.8 to 251 nM.

`CCN(CCCN1C(=O)N2[C@H](c3cccc(O)c3)c3[nH]c4ccc(Br)cc4c3C[C@@]2(C)C1=O)CCOC` (racemic) [Example 217, (3aSR,10RS)-6-Bromo-2-{3-[ethyl-(2-methoxy-ethyl)-amino]-propyl}-10-(3-hydroxy-phenyl)-3a-methyl-3a,4,9,10-tetrahydro-2,9,10a-triaza-cyclopenta[b]fluorene-1,3-dione]: the EC50 is at most 39.8 nM.

Take `COc1cc2c3c([nH]c2cc1F)[C@@H](c1cccc(O)c1)N1C(=O)N(CCNCC(C)C)C(=O)[C@]1(C)C3` (racemic) [Example 252, (3aSR,10RS)-7-Fluoro-10-(3-hydroxy-phenyl)-2-(2-isobutylamino-ethyl)-6-methoxy-3a-methyl-3a,4,9,10-tetrahydro-2,9,10-triaza-cyclopenta[b]fluorene-1,3-dione]: the EC50 is 39.8 to 251 nM.

For the compound `CCOc1ccc2[nH]c3c(c2c1)C[C@@]1(C)C(=O)N(CCCN2CCCCCC2)C(=O)N1[C@@H]3c1cccc(O)c1` (racemic) [Example 210, (3aSR,10RS)-2-(3-Azepan-1-yl-propyl)-6-ethoxy-10-(3-hydroxy-phenyl)-3a-methyl-3a,4,9,10-tetrahydro-2,9,10a-triaza-cyclopenta[b]fluorene-1,3-dione], the EC50 was 39.8 to 251 nM.

Turning to `CCOc1ccc2[nH]c3c(c2c1)C[C@@]1(C)C(=O)N(CCN2CCCCC2)C(=O)N1[C@@H]3c1cccc(O)c1` (racemic) [Example 164, (3aSR,10RS)-6-Ethoxy-10-(3-hydroxy-phenyl)-3a-methyl-2-(2-piperidin-1-yl-ethyl)-3a,4,9,10-tetrahydro-2,9,10a-triaza-cyclopenta[b]fluorene-1,3-dione], the EC50 was 39.8 to 251 nM.

Take `CCOc1ccc2[nH]c3c(c2c1)C[C@@]1(C)C(=O)N(CCNCCO)C(=O)N1[C@@H]3c1cccc(O)c1` (racemic) [Example 159, (3aSR,10RS)-6-Ethoxy-2-[2-(2-hydroxy-ethylamino)-ethyl]-10-(3-hydroxy-phenyl)-3a-methyl-3a,4,9,10-tetrahydro-2,9,10a-triaza-cyclopenta[b]fluorene-1,3-dione]: the EC50 was 39.8 to 251 nM.

Take `CCNCCCN1C(=O)N2[C@H](c3cccc(O)c3)c3[nH]c4ccc(OC(F)F)cc4c3C[C@@]2(C)C1=O` (racemic) [Example 204, (3aSR,10RS)-6-(1,1-Difluoro-methoxy)-2-(3-ethylamino-propyl)-10-(3-hydroxy-phenyl)-3a-methyl-3a,4,9,10-tetrahydro-2,9,10a-triaza-cyclopenta[b]fluorene-1,3-dione]: the EC50 is 39.8 to 251 nM.

With `C[C@@]12Cc3c([nH]c4ccc(Cl)cc34)[C@@H](c3cccc(O)c3)N1C(=O)N(CCCN1CCCC1)C2=O` (racemic) [Example 172, (3aSR,10RS)-6-Chloro-10-(3-hydroxy-phenyl)-3a-methyl-2-(3-pyrrolidin-1-yl-propyl)-3a,4,9,10-tetrahydro-2,9,10a-triaza-cyclopenta[b]fluorene-1,3-dione], the EC50 is at most 39.8 nM.

As to `COc1cc2c3c([nH]c2cc1F)[C@@H](c1cccc(O)c1)N1C(=O)N(CCCNC(C)C)C(=O)[C@]1(C)C3` (racemic) [Example 331, (3aSR,10RS)-7-Fluoro-10-(3-hydroxy-phenyl)-2-{3-isopropylamino-propyl)-6-methoxy-3a-methyl-3a,4,9,10-tetrahydro-2,9,10a-triaza-cyclopenta[b]fluorene-1,3-dione], the EC50 was 39.8 to 251 nM.

As for `CCN(C)CCN1C(=O)N2[C@H](c3cccc(O)c3)c3[nH]c4cc(F)c(OC)cc4c3C[C@@]2(C)C1=O` (racemic) [Example 257, (3aSR,10RS)-2-[2-(Ethyl-methyl-amino)-ethyl]-7-fluoro-10-(3-hydroxy-phenyl)-6-methoxy-3a-methyl-3a,4,9,10-tetrahydro-2,9,10a-triaza-cyclopenta[b]fluorene-1,3-dione], the EC50 was 39.8 to 251 nM.

Turning to `C=CCNCCCN1C(=O)N2[C@H](c3cccc(O)c3)c3[nH]c4cc(F)c(Cl)cc4c3C[C@@]2(C)C1=O` (racemic) [Example 465, (3aSR,10RS)-2-(3-Allylamino-propyl)-6-chloro-7-fluoro-10-(3-hydroxy-phenyl)-3a-methyl-3a,4,9,10-tetrahydro-2,9,10a-triaza-cyclopenta[b]fluorene-1,3-dione], the EC50 was 39.8 to 251 nM.

As to `CC(C)N(C)CCCN1C(=O)N2[C@H](c3cccc(O)c3)c3[nH]c4ccc(OC(F)F)cc4c3C[C@@]2(C)C1=O` (racemic) [Example 179, (3aSR,10RS)-6-(1,1-Difluoro-methoxy)-10-(3-hydroxy-phenyl)-2-[3-(isopropyl-methyl-amino)-propyl]-3a-methyl-3a,4,9,10-tetarhydro-2,9,10a-triaza-cyclopenta[b]fluorene-1,3-dione], the EC50 was at most 39.8 nM.

With `CCOc1ccc2[nH]c3c(c2c1)C[C@@]1(C)C(=O)N(CCN(CC)CC)C(=O)N1[C@@H]3c1cccc(O)c1` (racemic) [Example 162, (3aSR,10RS)-2-(2-Diethylamino-ethyl)-6-ethoxy-10-(3-hydroxy-phenyl)-3a-methyl-3a,4,9,10-tetrahydro-2,9,10a-triaza-cyclopenta[b]fluorene-1,3-dione], the EC50 was 39.8 to 251 nM.
